Data on 15 compounds can be found in PubChem BioAssay (NCI).

The structures appear in SMILES notation.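 A five-concentration, 48-hour dose response in 96-well plates underlies each endpoint, interpolated linearly between surrounding concentrations. The concentration for full growth arrest is given as TGI.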 Some results are limits rather than exact numbers.

Assay in all cases: DTP human tumour cell line panel, 48 h
Assay [1] relates to CAKI-1 renal.
Assay [2] has as its system HCT-116 colon.
Assay [3] concerns HOP-92 NSCLC.
For assay [4], the system named is HS 578T breast.
In assay [5] the test system is IGROV1 ovarian.
Assay [6] relates to M14 melanoma.
Assay [7] deals with NCI-H226 lung.
Assay [8] has as its system NCI-H460 lung.
For assay [9], the system named is SR leukemia.
The subject of assay [10] is ACHN renal.

A word on the TGI: it is the concentration at which net growth stops. `CC1SCCc2nc3ccccc3n21` (centres undefined): the TGI in assay [1], in assay [2], in [3], in assay [4], in [5] and in assay [6] was greater than 100 µM each time. In addition, the TGI in [7], in assay [8] and in assay [9] was greater than 100 µM in each case.

Regarding `COc1ccc(-c2cc(-c3ccc(Nc4ccnc5cc(C(F)(F)F)ccc45)cc3)nc(N)c2C#N)c2ccccc12`, the TGI in assay [10], in assay [1], in assay [2], in assay [3], in assay [4] and in [6] was greater than 100 µM in each case. For the same compound, the concentration for total growth inhibition (TGI) in [8] and in assay [9] was greater than 100 µM each time.

Consider `CCOC(=O)c1sc2nc(SC)nc3c2c1NCN3c1ccccc1Cl`, for which the concentration for total growth inhibition (TGI) is greater than 100 µM in assay [10]; greater than 100 µM in assay [1]; greater than 100 µM in assay [2]; 57.6 µM in assay [3]; 73.3 µM in assay [4]; greater than 100 µM in [5]. Moreover, the concentration for total growth inhibition (TGI) in assay [6], in assay [7] and in assay [8] was greater than 100 µM each time.

For the compound `CCCCSC1=N/C(=C\c2ccccc2O)C(Cl)=N1`, the total growth inhibition concentration (TGI) in [10], in [1], in assay [2], in assay [3], in assay [4] and in [5] was greater than 100 µM each time. Further, the total growth inhibition concentration (TGI) in assay [6], in [7] and in assay [8] was greater than 100 µM in each case.

Take `CC1=C(C(=O)OC(C)(C)C)C(c2ccc([N+](=O)[O-])cc2)C(C(=O)OC(C)(C)C)=C(C)N1`: the total growth inhibition concentration (TGI) was 41.3 µM in assay [10]; 56.4 µM in assay [1]; 36.4 µM in [2]; 29.7 µM in assay [3]; 43.4 µM in assay [4]; 32.2 µM in assay [5]. Moreover, the TGI worked out at 47.6 µM in assay [6], 39.1 µM in assay [7] and 38.6 µM in [8].

As to `N#Cc1c(N)n(-c2nc3ccccc3s2)c(=O)c2cc([N+](=O)[O-])ccc12`, the total growth inhibition concentration (TGI) in assay [10] was greater than 72.8 µM; in assay [1] it was 58.5 µM; in assay [2] it was greater than 41.9 µM; in [3], 42.3 µM; in [4] it was 36.9 µM; in [6], greater than 55 µM. Besides, the TGI in assay [7] was 52.6 µM; in assay [8], greater than 65.8 µM; in assay [9], 56.2 µM.

On to `CO/C(N)=C(\C#N)N=Cc1cccs1`, for which the TGI in assay [10], in [1], in assay [2], in [3], in assay [4] and in assay [5] was greater than 100 µM throughout. Also, the TGI in assay [6], in [7] and in [8] was greater than 100 µM throughout.

As for `CC(C)=C[C@@H]1C[C@H](C)[C@H]2CC[C@H](C)[C@H]3C(=O)C(O)=C(C)C(=O)[C@]123`, the concentration for total growth inhibition (TGI) in assay [10], in assay [1], in assay [2], in assay [3], in [4] and in [5] was greater than 100 µM each time. For the same compound, the TGI in assay [6], in [7] and in assay [8] was greater than 100 µM each time.

For the compound `COc1ccc2c(C=O)c3n(c(=O)c2c1OC)CCc1cc2c(cc1-3)OCO2`, the total growth inhibition concentration (TGI) is greater than 100 µM in assay [10]; greater than 100 µM in [1]; greater than 100 µM in assay [2]; 88.5 µM in assay [3]; greater than 100 µM in assay [4]; greater than 100 µM in assay [5]. Also, the concentration for total growth inhibition (TGI) in assay [6], in [7] and in assay [8] was greater than 100 µM in each case.

For the compound `CC(=O)Oc1c(OC(C)C)cc(=O)n2ccsc12`, the total growth inhibition concentration (TGI) in assay [10], in assay [1], in [2], in [3], in assay [4] and in assay [5] was greater than 100 µM throughout. For the same compound, the TGI in assay [6], in [7] and in assay [8] was greater than 100 µM each time.

As to `COc1cc(COC(=O)NC(Cc2cccs2)C(=O)O)c([N+](=O)[O-])cc1OC` (centres undefined), the TGI in assay [10], in [2], in assay [3], in assay [4], in assay [5] and in assay [6] was greater than 100 µM each time. The TGI in assay [7], in assay [8] and in [9] was greater than 100 µM throughout.

`Nc1nc(Nc2cc(F)c(Cl)c(F)c2)cc(=O)[nH]1`: the concentration for total growth inhibition (TGI) in assay [10] was greater than 100 µM; in [1], greater than 100 µM; in [2], greater than 100 µM; in assay [3] it was greater than 100 µM; in [4] it was 66.5 µM; in [5], greater than 100 µM. Also, the TGI in assay [6], in [7] and in assay [8] was greater than 100 µM each time.

Take `COc1c(-c2nc3nc(N4CCN(C)CC4)ccc3[nH]2)cc(OC)c2c1nc(CCl)n2C`: the concentration for total growth inhibition (TGI) is 26.9 µM in assay [10]; 33.2 µM in assay [1]; greater than 100 µM in assay [2]; 41.9 µM in assay [3]; greater than 100 µM in [4]; 36.8 µM in [5]. Also, the figures for the TGI in [6], in [7] and in assay [8] were 33.7 µM, 66.1 µM and 52.8 µM, respectively.

For `CCN(CC)CCCNc1nnc(C)c2[nH]c3ccccc3c12`, the TGI in assay [10] was 59.9 µM; in assay [1], greater than 100 µM; in assay [2], 69.4 µM; in assay [3], 55 µM; in assay [4], 38 µM; in assay [5] it was 44.3 µM. The figures for the TGI in assay [6], in assay [8] and in assay [9] were 32.4 µM, 30.9 µM and 32.6 µM, respectively.

With `O=P1(C(O)c2ccccc2)N(Cc2ccccc2)[C@@H]2CCCC[C@H]2N1Cc1ccccc1` (some centres undefined), the TGI in [10] is greater than 100 µM; in [1] it was greater than 100 µM; in assay [2], greater than 100 µM; in [4], 45.5 µM; in assay [5], 49.9 µM; in [6], 58.5 µM. Further, the total growth inhibition concentration (TGI) in assay [7] is 64.7 µM; in [8], greater than 100 µM; in assay [9] it was 49.9 µM.
